Test results from the supplement of paper PMC13380429.

Key:
Conditions in all cases: 72 h
[1] = test system: Vero E6; assay: drug sensitivity score (DSS) for viability; higher = more toxic; extreme values may be limits of the assay
[2] = test system: U2OS; assay: as above
[3] = test system: Caco-2; assay: as above
[4] = test system: Calu-3; assay: as above
[5] = test system: HepG2; assay: as above
[6] = test system: Vero E6; assay: cell viability relative to DMSO; higher = less toxic
[7] = test system: U2OS; assay: as above
[8] = test system: Caco-2; assay: as above
[9] = test system: Calu-3; assay: as above
[10] = test system: HepG2; assay: as above
[11] = test system: Vero E6; assay: relative viability EC50 (midpoint between 100% and the lowest measured viability); higher = less toxic
[12] = test system: U2OS; assay: as above
[13] = test system: Caco-2; assay: as above
[14] = test system: Calu-3; assay: as above
[15] = test system: HepG2; assay: as above

Structure (SMILES)	drug sensitivity score [1]	drug sensitivity score [2]	drug sensitivity score [3]	drug sensitivity score [4]	drug sensitivity score [5]	cell viability ([6]; 1 nM) [%]	cell viability ([6]; 10 nM) [%]	cell viability ([6]; 100 nM) [%]	cell viability ([6]; 1000 nM) [%]	cell viability ([6]; 10000 nM) [%]	cell viability ([7]; 1 nM) [%]	cell viability ([7]; 10 nM) [%]	cell viability ([7]; 100 nM) [%]	cell viability ([7]; 1000 nM) [%]	cell viability ([7]; 10000 nM) [%]	cell viability ([8]; 1 nM) [%]	cell viability ([8]; 10 nM) [%]	cell viability ([8]; 100 nM) [%]	cell viability ([8]; 1000 nM) [%]	cell viability ([8]; 10000 nM) [%]	cell viability ([9]; 1 nM) [%]	cell viability ([9]; 10 nM) [%]	cell viability ([9]; 100 nM) [%]	cell viability ([9]; 1000 nM) [%]	cell viability ([9]; 10000 nM) [%]	cell viability ([10]; 1 nM) [%]	cell viability ([10]; 10 nM) [%]	cell viability ([10]; 100 nM) [%]	cell viability ([10]; 1000 nM) [%]	cell viability ([10]; 10000 nM) [%]	relative viability EC50 [11] [µM]	relative viability EC50 [12] [µM]	relative viability EC50 [13] [µM]	relative viability EC50 [14] [µM]	relative viability EC50 [15] [µM]
Cc1nc(C)c(C)nc1C [chuanxiongzine]	0	0	0	0.2	0	104	97.1	104	104	105	98.5	102	98.6	101	95.7	110	105	95.7	112	105	105	106	89.9	101	84.8	105	88.9	97.1	92	97.3	> 10	> 10	> 10	> 10	> 10
O=C1CCc2cc(OCCCCc3nnnn3C3CCCCC3)ccc2N1 [cilostazol]	0	0	0	0	0	91.5	99	96.9	101	95.7	93.2	96.9	94	96.5	95	97.5	104	99.7	101	90.3	94.3	107	99.1	115	111	114	99.9	110	99.4	92.6	> 10	> 10	> 10	> 10	> 10
CCC(CC)(CC(=O)Nc1cccc(/C=C/c2nc(C3CCC3)cs2)c1)C(=O)O [cinalukast]	0	0	0	0	0	101	109	101	98.2	96.6	102	96.7	107	99.4	103	99.2	97.1	102	96.9	90.7	98.9	89.9	88.1	88.4	101	97.4	108	106	91.9	95.7	> 10	> 10	> 10	> 10	> 10
CN(C)CCCSc1ccccc1NC(=O)/C=C/c1ccccc1 [cinanserin]	0	0	0	0	0.1	99.4	99.9	97	101	87.9	108	99.6	98.5	97.2	97.6	92.4	95	94.4	97.3	102	108	98.6	98.1	90.7	98.9	94.3	94.1	101	102	85.8	> 10	> 10	> 10	> 10	> 10
COc1cc(/C=C/C(=O)N2CCN(CC(=O)N3CCCC3)CC2)cc(OC)c1OC [cinepazide]	0	0	0	0	0	98.5	98.1	102	100	98.6	92.6	97.5	92.1	100	95.6	96.4	105	94.9	103	91.3	104	96	95.8	94	101	101	96.9	90.8	98.2	96.1	> 10	> 10	> 10	> 10	> 10
CC(C)(Oc1ccc(Cl)cc1)C(=O)O [clofibric-acid]	0	0	0	0	0	102	101	97.7	93.3	94.2	101	95.1	99.9	94.9	99.2	95.5	96.6	101	99.3	99.1	94.2	96.5	100	92.5	96.2	93.7	106	95.6	105	96.2	> 10	> 10	> 10	> 10	> 10
Oc1ccc(Cl)c2cccnc12 [cloxyquin]	0	0	0	0	0.3	99.7	105	99.9	101	97.7	94.4	99.3	99.4	99.8	97.4	96.1	98.1	104	96.9	95	87.9	100	96	106	105	102	98.9	116	93.4	88.2	> 10	> 10	> 10	> 10	> 10
